Data set [1] in a line: Solubility. The format is physicochemical.
The nature of data set [2]: Stability / hydroscopicity. The format is physicochemical. The note with it: hydrochloride salt.
Data set [3] in a line: Acute toxicity, intravenous. Conditions: mouse, in vivo.
The subject of data set [4] is Sarcina lutea PCI1001. The data set can be described thus: Antibacterial activity, agar dilution method (Table 2-1). Conditions: Micrococcus luteus, nutrient agar, 37° C., hydrochloride, read-out: Minimum inhibitory concentration. The format is cell-based. Background: In agar dilution the substance is mixed into plates at graded concentrations.
Data set [5] relates to Bacillus subtilis NRRL B-558. The data set is described as above. It counts as cell-based. Conditions: NRRLB558, nutrient agar, 37° C., hydrochloride, read-out: Minimum inhibitory concentration.
Data set [6] relates to Shigella flexneri 4bJS11811. The data set is described as above. The format is cell-based. Conditions: nutrient agar, 37° C., hydrochloride, read-out: Minimum inhibitory concentration. The source says:
(§1) | Medium used: nutrient agar

For data set [7], the system named is Shigella sonnei JS11746. Described as above. It counts as cell-based. Conditions: nutrient agar, 37° C., hydrochloride, read-out: Minimum inhibitory concentration.
Source text: as §1

Data set [8] deals with Salmonella typhi T-63. Described as above. The format is cell-based. Conditions: Salmonella enterica, read-out: Minimum inhibitory concentration.
For data set [9], the system named is Candida Yu-1200. The data set can be described thus: Antibacterial activity, agar dilution method (Table 2-3). It counts as cell-based. The note with it: YU1200, nutrient agar + 1% glucose, 27° C., hydrochloride, read-out: Minimum inhibitory concentration.
Data set [10] relates to Candida krusei NI7492. Described as above. Conditions: Pichia kudriavzevii, nutrient agar + 1% glucose, 27° C., hydrochloride, read-out: Minimum inhibitory concentration. The format is cell-based.
Data set [11] deals with Saccharomyces cerrevisiae. Described as above. The format is cell-based. Conditions: nutrient agar + 1% glucose, 27° C., hydrochloride, read-out: Minimum inhibitory concentration.
The test system of data set [12] is Trichophyton mentagrophytes. The data set is described as above. Conditions: nutrient agar + 1% glucose, 27° C., hydrochloride, read-out: Minimum inhibitory concentration. The format is cell-based.
In data set [13] the test system is Gram-positive and Gram-negative bacteria. The experiment in a line: Antibacterial activity, agar dilution method (summary in words). The format is cell-based. Conditions: as the hydrochloride salt.
Data set [14] has as its system mouse leukemia EL-4. The data set can be described thus: Effect on mouse leukemia EL-4. The format is in vivo. Conditions: for rate of elongation of survival period: once a day for 9 days, C57 BL/6 mice, control 11.0 days.
Data set [15] has as its system mouse Sarcoma 180. The data set can be described thus: Effect on Sarcoma 180. The note with it: for rate of elongation of survival period: once a day for 9 days, ICR mice, control 13.8 days.
The test system of data set [16] is mouse Ehrlich ascites tumor. The data set can be described thus: Effect on mouse Ehrlich ascites tumor. Conditions: for rate of elongation of survival period: once a day for 9 days, ICR mice, control 13.8 days.
The subject of data set [17] is Aeromonas punctata IAM1646. The experiment in a line: Antibacterial activity, agar dilution method (Table 2-2). Conditions: Aeromonas caviae, IAM1646, read-out: Minimum inhibitory concentration.
The subject of data set [18] is Aeromonas salmonecida ATCC 14174. The data set is described as above. Conditions: ATCC14174, read-out: Minimum inhibitory concentration.
The subject of data set [19] is Aeromonas sp. (KT-444). Described as above. Conditions: read-out: Minimum inhibitory concentration.
For data set [20], the system named is Pseudomonas lachrymans. The data set is described as above. Conditions: read-out: Minimum inhibitory concentration.

The structures appear in SMILES notation. ≈ marks a conversion by molar mass, not a printed value. Entries after “also recorded” stand apart in the source; their conditions may differ. Structures can show the parent of a compound that is named as a salt. Bounds are passed on as bounds.

For the compound `N=C(N)NCCCCC(O)CC(=O)NC(O)C(=O)NCCCCNCCCN` (stereo not shown) [BMG162-aF2 hydrochloride], the solubility entry in data set [1] (benzene) is “only slightly soluble or insoluble”; in [1] (chloroform), “only slightly soluble or insoluble”; in data set [1] (ethanol), “only slightly soluble or insoluble”; in data set [1] (ethyl acetate), “only slightly soluble or insoluble”; in data set [1] (methanol) it was “easily soluble”; in [1] (water), “easily soluble”. Also, the hydroscopicity entry in data set [2] was “so hydroscopic that it forms a hydrate”. Also, in data set [3], the LD50 (commonly the dose expected to kill half of the subjects tested) was > 80 mg/kg.
With `N=C(N)NCCCCC(O)CC(=O)NC(O)C(=O)NCCCCNCCCN` (stereo not shown) [BMG162-aF2], the MIC in data set [4] was 100 µg/mL (≈ 248 µM); in data set [5], 100 µg/mL (≈ 248 µM); in [6], > 100 µg/mL; in [7] it was > 100 µg/mL; in data set [8], > 100 µg/mL; in [9], > 100 µg/mL. The MIC in data set [10], in [11], in [12], in data set [17], in data set [18] and in data set [19] was > 100 µg/mL in each case. Besides, the MIC in data set [20] turned out to be 50 µg/mL (≈ 124 µM). Further, the “inhibitory activity against Gram-positive and Gram-negative bacteria” value in data set [13] was “only weak inhibitory activity; also recorded: weakly inhibits Gram positive and negative bacteria”. For the same compound, the “rate of elongation of survival period” value in data set [14] (0.313 mg/kg/day ip) is reported as 131; in data set [14] (0.625 mg/kg/day ip), 130; in data set [14] (1.25 mg/kg/day ip) it was 159; in data set [14] (2.5 mg/kg/day ip), 164; in data set [14] (5 mg/kg/day ip), 193; in data set [15] (1.56 mg/kg/day ip) it was 220. Moreover, the “rate of elongation of survival period” value in data set [15] (3.13 mg/kg/day ip) was 243; in data set [15] (6.25 mg/kg/day ip), 181; in data set [15] (12.5 mg/kg/day ip), > 279; in data set [15] (50 mg/kg/day ip) it was 53; in [16] (1.56 mg/kg/day ip), 133; in data set [16] (3.13 mg/kg/day ip) it was 188. The “rate of elongation of survival period” value in data set [16] (6.25 mg/kg/day ip) stood at 236; in [16] (12.5 mg/kg/day ip), 170; in [16] (25 mg/kg/day ip), 72; in [16] (50 mg/kg/day ip), 54. The “effect on mouse leukemia EL-4” value in data set [14] (hydrochloride, ip) was “remarkable effects of cure and elongation of survival period”. The Toxic sign result was “Toxic sign appeared” in data set [15] (50, 12.5 and 6.25 mg/kg/day ip (footnote *)); “Toxic sign appeared” in [16] (50, 25 and 12.5 mg/kg/day ip (footnote *)). The “effect on Sarcoma 180” value in [15] (hydrochloride, ip) is “remarkable effects of cure and elongation of survival period; also recorded: showed an effect against a transplanted tumor”. The “effect on Ehrlich ascites tumor” value in [16] (hydrochloride, ip) was “remarkable effects of cure and elongation of survival period; also recorded: showed an effect against a transplanted tumor”.

(Values after patent US4416899A, “Antibiotic BMG162-aF2, a process for production thereof, and antitumor drug containing said new antibiotic as active ingredient” (priority 1980, dated 1983).)
